Like-named read-outs stand apart in the source and are kept apart here.
Legend:
[1] = molecular target: Myeloid Cell Leukemia 1(Mcl-1) (Homo sapiens (Human), UniProt Q07820); experiment: Terbium labeled Mcl-1 HTRF binding assay with Cy5-labeled BIM BH3 peptide; conditions: obtained after recalibration of the equipment; averaged values over several runs
Method: Terbium labeled Myeloid Cell Leukemia 1(Mcl-1) homogeneous time-resolved fluorescence (HTRF) binding assay utilizing the BIM BH3 peptide (H2N-(C/Cy5Mal) WIAQELRRIGDEFN-OH) as the binding partner for Mcl-1.
This assay evaluated inhibition of the BH3 domain: Mcl-1 interaction by measuring the displacement of Cy5-labeled BIM BH3 peptide (H2N—(C/Cy5Mal) WIAQELRRIGDEFN-OH) in the HTRF assay format.
The following assay and stock buffers were prepared for use in the assay: (a) Stock buffer: 10 mM Tris-HCl, pH=7.5+150 mM NaCl, filtered, sterilized, and stored at 4° C.; and (b) 1× assay buffer, where the following ingredients were added fresh to stock buffer: 2 mM dithiothreitol (DTT), 0.0025% Tween-20, 0.1 mg/mL bovine serum albumin (BSA). The 1×Tb-Mcl-1+Cy5 Bim peptide solution was prepared by diluting the protein stock solution using the 1× assay buffer (b) to 25 pM Tb-Mcl-1 and 8 nM Cy5 Bim peptide.
Using the Acoustic ECHO, 100 nL of 100× test compound(s) were dispensed into individual wells of a white 384-well Perkin Elmer Proxiplate, for a final compound concentration of lx and final DMSO concentration of 1%. Inhibitor control and neutral control (NC, 100 nL of 100% DMSO) were stamped into columns 23 and 24 of assay plate. Into each well of the plate was then dispensed 10 μL of the 1×Tb-Mcl-1+Cy5 Bim peptide solution. The plate was centrifuged with a cover plate at 1000 rpm for 1 minute, then incubated for 60 minutes at room temperature with plates covered.
The TR-FRET signal was read on an BMG PHERAStar FSX MicroPlate Reader at room temperature using the HTRF optic module (HTRF: excitation: 337 nm, light source: laser, emission A: 665 nm, emission B: 620 nm, integration start: 60 μs, integration time: […]).
The BMG PHERAStar FSX MicroPlate Reader was used to measure fluorescence intensity at two emission wavelengths—665 nm and 620 nm—and report relative fluorescence units (RFU) for both emissions, as well as a ratio of the emissions (665 nm/620 nm)*10,000. The RFU values were normalized to percent inhibition as follows:
% inhibition=((NC−IC)−(compound−IC))/(NC−IC))*100
where IC (inhibitor control, low signal)=mean signal of 1×Tb-MCl-1+Cy5 Bim peptide+inhibitor control or 100% inhibition of Mcl-1; NC (neutral control, high signal)=mean signal 1×Tb-MCl-1+Cy5 Bim peptide with DMSO only or 0% inhibition An 11-point dose response curve was generated to determine IC50 values (using GenData) based on the following equation:
Y=Bottom+(Top−Bottom)/(1+10^((IogIC50−X)*HillSlope))
where Y=% inhibition in the presence of X inhibitor concentration; Top=100% inhibition derived from the IC (mean signal of Mcl-1+inhibitor control); Bottom=0% inhibition derived from the NC (mean signal of Mcl-1+DMSO); Hillslope=Hill coefficient; and IC50=concentration of compound with 50% inhibition in relation to top/neutral control (NC).
In this assay [L]=8 nM and Kd=10 nM

[2] = test system: MOLP-8 human multiple myeloma cell line; experiment: Caspase-Glo 3/7 assay in MOLP-8 cells; assay type: cell-based; conditions: Caspase-Glo 3/7, 2 hours incubation, averaged over all runs on all batches, read-out: MOLP8 AC50
Source text: MCL-1 is a regulator of apoptosis and is highly over-expressed in tumor cells that escape cell death. The assay evaluates the cellular potency of small-molecule compounds targeting regulators of the apoptosis pathway, primarily MCL-1, Bfl-1, Bcl-2, and other proteins of the Bcl-2 family. Protein-protein inhibitors disrupting the interaction of anti-apoptotic regulators with BH3-domain proteins initiate apoptosis.
The Caspase-Glo® 3/7 Assay is a luminescent assay that measures caspase-3 and -7 activities in purified enzyme preparations or cultures of adherent or suspension cells. The assay provides a proluminescent caspase-3/7 substrate, which contains the tetrapeptide sequence DEVD. This substrate is cleaved to release aminoluciferin, a substrate of luciferase used in the production of light. Addition of the single Caspase-Glo® 3/7 Reagent in an “add-mix-measure” format results in cell lysis, followed by caspase cleavage of the substrate and generation of a “glow-type” luminescent signal.
This assay uses the MOLP-8 human multiple myeloma cell line, which is sensitive to MCL-1 inhibition.
Cell cultures were maintained between 0.2 and 2.0×10^6 cells/mL. The cells were harvested by collection in 50 mL conical tubes. The cells were then pelleted at 500 g for 5 mins before removing supernatant and resuspension in fresh pre-warmed culture medium. The cells were counted and diluted as needed.
The assay reagent was prepared by transferring the buffer solution to the substrate vial and mixing. The solution may be stored for up to 1 week at 4° C. with negligible loss of signal.
Compounds were delivered in assay-ready plates (Proxiplate) and stored at −20° C. Assays always include 1 reference compound plate containing reference compounds. The plates were spotted with 40 nL of compounds (0.5% DMSO final in cells; serial dilution; 30 μM highest conc. 1/3 dilution, 10 doses, duplicates). The compounds were used at room temperature and 4 μL of pre-warmed media was added to all wells except column 2 and 23. The negative control was prepared by adding 1% DMSO in media. The positive control was prepared by adding the appropriate positive control compound in final concentration of 60 μM in media. The plate was prepared by adding 4 μL negative control to column 23, 4 μL positive control to column 2 and 4 μL cell suspension to all wells in the plate. The plate with cells was then incubated at 37° C. for 2 hours. The assay signal reagent is the Caspase-Glo solution described above, and 8 μL was added to all wells. The plates were then sealed and measured after 30 minutes.
The activity of a test compound was calculated as percent change in apoptosis induction as follows: […]

Myeloid Cell Leukemia 1(Mcl-1), sequence (Q07820 whole entry): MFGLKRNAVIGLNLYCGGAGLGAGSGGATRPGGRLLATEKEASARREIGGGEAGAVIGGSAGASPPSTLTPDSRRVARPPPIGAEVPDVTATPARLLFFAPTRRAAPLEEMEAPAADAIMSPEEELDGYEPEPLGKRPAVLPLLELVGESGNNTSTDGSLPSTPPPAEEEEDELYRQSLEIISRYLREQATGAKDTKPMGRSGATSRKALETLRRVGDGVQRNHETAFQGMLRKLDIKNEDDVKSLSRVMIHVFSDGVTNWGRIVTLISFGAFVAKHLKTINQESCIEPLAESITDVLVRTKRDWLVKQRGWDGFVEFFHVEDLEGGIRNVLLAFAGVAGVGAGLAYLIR

| SMILES | Ki [1] [nM] | AC50 [2] [nM] | AC50 ([2]; Homo sapiens, MOLP-8, 2 h) [nM] |
| --- | --- | --- | --- |
| COCC1(CO)/C(F)=C/C[C@H](C)[C@@H](C)S(=O)(=O)NC(=O)c2ccc3c(c2)N(C[C@@H]2CCN21)C[C@@]1(CCCc2cc(Cl)ccc21)CO3 (single isomer, unassigned) [Compound 39] | 1.84 | 630 |  |
| COCCOCC1(CO)/C(F)=C/C[C@H](C)[C@@H](C)S(=O)(=O)NC(=O)c2ccc3c(c2)N(C[C@@H]2CCN21)C[C@@]1(CCCc2cc(Cl)ccc21)CO3 (single isomer, unassigned) [Compound 40] | 0.16 | 194 |  |
| COCCOCC1(CO)/C(F)=C/C[C@H](C)[C@@H](C)S(=O)(=O)NC(=O)c2ccc3c(c2)N(C[C@@H]2CCN21)C[C@@]1(CCCc2cc(Cl)ccc21)CO3 (single isomer, unassigned) [Compound 42] | 0.9 | 730 |  |
| C[C@@H]1[C@@H](C)C/C=C(\F)[C@H](CN2CCN3CCOC[C@@H]3C2)N2CC[C@H]2CN2C[C@@]3(CCCc4cc(Cl)ccc43)COc3ccc(cc32)C(=O)NS1(=O)=O [Compound 28] | 0.09 |  | 120 |
| C[C@@H]1[C@@H](C)C/C=C(\F)[C@H](COCCCN2CCOCC2)N2CCC[C@H]2CN2C[C@@]3(CCCc4cc(Cl)ccc43)COc3ccc(cc32)C(=O)NS1(=O)=O [Compound 34] | 0.21 |  | 458 |
| C[C@@H]1[C@@H](C)C/C=C(\F)C(CO)(CO)N2CCC[C@H]2CN2C[C@@]3(CCCc4cc(Cl)ccc43)COc3ccc(cc32)C(=O)NS1(=O)=O [Compound 35] | 0.14 |  | 547 |
| C[C@@H]1[C@@H](C)C/C=C(\F)C(CO)(CO)N2CC[C@H]2CN2C[C@@]3(CCCc4cc(Cl)ccc43)COc3ccc(cc32)C(=O)NS1(=O)=O [Compound 36] | 0.23 |  | 2390 |
| COCC1(COC)/C(F)=C/C[C@H](C)[C@@H](C)S(=O)(=O)NC(=O)c2ccc3c(c2)N(C[C@@H]2CCN21)C[C@@]1(CCCc2cc(Cl)ccc21)CO3 [Compound 37] | 0.45 |  | 253 |

Reference: US20240067660A1, “MACROCYCLIC SPIROCYCLE DERIVATIVES AS MCL-1 INHIBITORS” (Janssen Pharmaceutica NV, priority 2019, published 2024)
